Results as given in patent US10590101B2, “Benzo-N-hydroxy amide compounds having antitumor activity” (ITALFARMACO SPA, priority 2016, dated 2020).

Legend:
HCT116 cells = assay: Cytotoxicity in vitro, HCT116 (CellTiter 96 Aqueous One Solution); type: cell-based, human; settings: Homo sapiens, HCT-116; Table 1; 72 h incubation; read-out: HCT116
Excerpt: The compounds of the present invention are small molecules of formula (I), characterised by the presence of a metal chelating moiety, the benzohydroxamate, an α-aminoacidic N-acylated central core and an α,β-unsaturation at the acyl-moiety. This particular structural feature seems responsible for the high inhibitory activity on cancer stem cell lines and on HCT116 cells (ATCC CCL-247), a human colorectal carcinoma cell line widely used in cancer biology both in vitro and in vivo (Botchkina Cancer Genom Proteom 6, 19-30, 2009; Yeung PNAS 107, 3722-3727, 2010).
(§1) The cytotoxicity activity was evaluated as follows: • Pre-B leukemia cell line 697 was seeded at 2×10^5 c/well; • Colon carcinoma cell lines HCT116, HT29 and COLO2015 were seeded at 4×10^3, 4×10^3 and 10×10^3 c/well respectively; • Primary human kidney cells were seeded at 1.5×10^3 and 6.5×10^3 in two separate experiments; • Human PBMC were seeded at 5×10^5 c/well; • Colon cancer stem cells (CSC) were seeded at 3×10^3;
(§2) Testing compounds were added after 24 h and incubated for 72 h (48 h for 697 cell line). The concentrations of molecules ranged from 10000 nM to 1.5 nM (10000 to 1 nM for 697 cell line). The cytotoxic activity of compounds was evaluated using the CellTiter 96® Aqueous One Solution Cell Proliferation Assay (Promega) which measures the functionality of mitochondria according to manufacturer's instructions. For Colon cancer stem cells viability was determined with CellTiter-Glo Luminescent cell viability assay (Promega).
(§3) The activity of compounds at any dose is calculated as percentage of inhibition versus vehicle-treated control (=0). The IC50s are extrapolated from the inhibition dose/response curve using GraphPad Prism program.

[1] = test system: Pre-B leukemia cell line 697; assay: Primary cytotoxicity screening, 697 cell line (CellTiter 96); type: cell-based; settings: Table 1; 48 h incubation; read-out: CyTox697
Procedure: as §1, §2, §3

[2] = test system: Colon cancer stem cells (CSC) CSC1; assay: Cytotoxicity in vitro, colon cancer stem cells CSC1 (CellTiter-Glo); type: cell-based; settings: Table 1; 72 h incubation; read-out: CSC1
Procedure: as §1, §2, §3

SMILES | IC50 (HCT116 cells) [nM] | IC50 [1] [nM] | IC50 [2] [nM]
COc1ccc(C[C@H](NC(=O)c2ccc3c(c2)OCO3)C(=O)Nc2ccc(C(=O)NO)cc2)cc1 | 24 | 21 | 24
COc1ccc(C[C@H](NC(=O)Cc2ccc3c(c2)OCO3)C(=O)Nc2ccc(C(=O)NO)cc2)cc1 | 554 | 168 | 280
COc1ccc(C[C@H](NC(=O)CCc2ccc3c(c2)OCO3)C(=O)Nc2ccc(C(=O)NO)cc2)cc1 | 702 | 496 | 400
COc1ccc(C[C@H](NC(=O)c2ccccc2)C(=O)Nc2ccc(C(=O)NO)cc2)cc1 | 76 | 54 | 48
COc1ccc(C[C@H](NC(=O)Cc2ccccc2)C(=O)Nc2ccc(C(=O)NO)cc2)cc1 | 316 | 72 | 160
COc1ccc(C[C@H](NC(=O)CCc2ccccc2)C(=O)Nc2ccc(C(=O)NO)cc2)cc1 | 431 | 53 | 136
COc1ccc(C[C@H](NC(=O)COc2ccccc2)C(=O)Nc2ccc(C(=O)NO)cc2)cc1 | 194 | 44 | 
O=C(NO)c1ccc(NC(=O)[C@H](Cc2ccccc2)NC(=O)c2ccc3c(c2)OCO3)cc1 | 79 | 18 | 
O=C(Cc1ccc2c(c1)OCO2)N[C@@H](Cc1ccccc1)C(=O)Nc1ccc(C(=O)NO)cc1 | 1070 | 127 | 208
O=C(CCc1ccc2c(c1)OCO2)N[C@@H](Cc1ccccc1)C(=O)Nc1ccc(C(=O)NO)cc1 | 900 | 203 | 336
O=C(NO)c1ccc(NC(=O)[C@H](Cc2ccccc2)NC(=O)c2ccccc2)cc1 | 184 | 105 | 96
O=C(Cc1ccccc1)N[C@@H](Cc1ccccc1)C(=O)Nc1ccc(C(=O)NO)cc1 | 237 | 90 | 192
